Consider one substance from patent publication US20110293727A1, “CHIMERIC THERAPEUTICS, COMPOSITIONS, AND METHODS FOR USING SAME” (priority 2008, published 2011).

The assay has as its system inhibitory dsRNA. Kind of assay: K9 protein-RNA complex by electrophoresis of labeled inhibitory dsRNA and K9 protein. The class given is binding. The settings on record: 4 M Urea, 10 mM Hepes, pH 8.15; 1.5% agarose gel; FIG. 5. The method, then:
Inhibitory dsRNA 3′-labeled with Dy547 is purchased from Dharmacon (Lafayette, Colo.). Labeled and unlabeled inhibitory dsRNA solutions are diluted to 4 μM in 4 M Urea, 10 mM Hepes, pH 8.15. […] Labeled and unlabeled protein solutions are diluted to 3 μM in 4M Urea.
Labeled and unlabeled RNA and protein are used in separate binding reactions. Samples are run on a 1.5% TAE-agarose gel for 35 minutes at 110 volts.
A typhoon phosphoimager(GE) is used to visualize the cy5-only, DY547-only and cy5/DY547 labeled RNA protein complexes. Filters are employed to separately detect Dy547 (FIG. 5A) and cy5 (FIG. 5B) fluorescent labels. To image all fluorescence on the gel, cy5-filtered and dy547-filtered images are overlayed (FIG. 5C).

Regarding “K9: modified HBV core protein (contains E77C), 9-lysine C-terminal tail, His tag, SEQ ID NO: 10 [Mutant K9]”, the “complex formation of K9 protein with inhibitory dsRNA (shifted band)” value is “form a complex in solution”.
